Where two headings read alike, the source gives them in different places.
Test: physchem
Assay type: physicochemical
Description: In the context of the present invention, the term “water-soluble agrochemically active compound” is generally understood as meaning an insecticidally and/or acaricidally active compound (i.e. an active compound that controls insects and/or Acarina) which has (at 20° C.) a solubility of ≧10 mg/l in water. Compounds A and B meet this requirement.

solubility (at 20° C., stated as meeting the definition of water-soluble, read-out: solubility in water)	SMILES	solubility (20 °C, water)
≥ 10 µg/mL	C/C(=N\C#N)N(Cc1ccc(Cl)nc1)CC(F)F [Compound A]	–
–	O=C1C=C(N(Cc2ccc(Cl)nc2)CC(F)F)CO1 [Compound B]	≥ 10 µg/mL
